# Experimental data reported in PubChem BioAssay (NCI).
# Values joined by “and” are separate entries in the source; they are usually repeats but may differ in a detail not shown here. Identical values can stand only once.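 Tested at 5 concentrations; 48 h exposure; 96-well plates; endpoints linearly interpolated, else capped at highest concentration. GI50 marks 50% less growth. TGI is the concentration that stops growth completely.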
# Experiments:
# Test in all cases: NCI anticancer screen, dose series, 48 h
# M14 melanoma = system: M14 melanoma
# K-562 leukemia = system: K-562 leukemia
# SNB-75 CNS = system: SNB-75 CNS
# HT29 colon = system: HT29 colon
# HOP-62 NSCLC = system: HOP-62 NSCLC
# UACC-257 melanoma = system: UACC-257 melanoma
# HS 578T breast = system: HS 578T breast
# HCT-15 colon = system: HCT-15 colon
# RPMI-8226 leukemia = system: RPMI-8226 leukemia
# 786-0 renal = system: 786-0 renal
SMILES,GI50 (M14 melanoma),TGI (M14 melanoma),GI50 (K-562 leukemia),TGI (K-562 leukemia),GI50 (SNB-75 CNS),TGI (SNB-75 CNS),GI50 (HT29 colon),TGI (HT29 colon),GI50 (HOP-62 NSCLC),TGI (HOP-62 NSCLC),GI50 (UACC-257 melanoma),TGI (UACC-257 melanoma),GI50 (HS 578T breast),TGI (HS 578T breast),GI50 (HCT-15 colon),TGI (HCT-15 colon),GI50 (RPMI-8226 leukemia),TGI (RPMI-8226 leukemia),GI50 (786-0 renal),TGI (786-0 renal)
NC1=NC(c2ccccc2)N=C(Nc2ccccc2)N1 (configuration not stated),> 100 µM,> 100 µM,> 100 µM,> 100 µM,34.8 µM,> 100 µM,> 100 µM,> 100 µM,> 100 µM,> 100 µM,> 100 µM,> 100 µM,68.5 µM,> 100 µM,> 100 µM,> 100 µM,> 100 µM,> 100 µM,> 100 µM,> 100 µM
CN(C)CCNC(=O)c1cccc2cc3ccccc3nc12,1.43 µM,3.29 µM,1.88 µM,18.1 µM,2.01 µM,6.22 µM,0.774 µM,3.15 µM,0.961 µM,6.68 µM,1.6 µM,3.55 µM,1.6 µM,10.2 µM,1.25 µM,–,1.89 µM,> 25.2 µM,1.52 µM,8.64 µM
COC(=O)c1ccc(=O)c2nc3/c(=C/O)c(O)cc(=O)c3[nH]c12,1.07 µM,24.9 µM and 24.5 µM,0.372 µM,> 100 µM,0.482 µM,16.4 µM and 13.6 µM,1.03 µM,> 39.8 µM and 28.5 µM,0.461 µM,18.7 µM and 16.2 µM,2.74 µM,16.1 µM and 27.8 µM,0.301 µM,23 µM and 20.1 µM,0.42 µM,21.4 µM and 14.5 µM,0.393 µM,30.7 µM and 3.93 µM,1.52 µM,23.8 µM and 17.9 µM
CS(=O)(=O)N1CCN(Cc2cc3nc(-c4cccc5[nH]ncc45)nc(N4CCOCC4)c3s2)CC1 (tested in a mixture with another compound),0.277 µM,–,0.349 µM,–,0.021 µM,0.164 µM,0.074 µM,–,0.112 µM,–,0.0608 µM,0.42 µM,0.0496 µM,0.612 µM,0.207 µM,> 100 µM,3.48 µM,> 100 µM,0.037 µM,0.148 µM
O=S(=O)(NC(=S)Nc1ccccc1)c1ccc(N2N=C3c4ccccc4CC3C2c2cccs2)cc1 (configuration not stated),22.7 µM,46.3 µM,31.3 µM,56.5 µM,71.9 µM,> 100 µM,36.2 µM,> 100 µM,20.3 µM,45.7 µM,29.1 µM,79.9 µM,20.9 µM,68 µM,22.6 µM,63.5 µM,30.3 µM,97.6 µM,19.7 µM,40.4 µM
NC(=O)c1[nH]nc(C2OC(CO)C(O)C2O)c1O (configuration not stated),–,882 µM,–,2290 µM,–,840 µM,–,3420 µM,–,478 µM,–,> 5000 µM,–,1620 µM,–,838 µM,–,1830 µM,–,> 2870 µM
C=C1C(=O)O[C@H]2[C@H]1CC/C(COC(=O)C(=O)c1c[nH]c3ccc(OC)cc13)=C\CC[C@@]1(C)O[C@@H]21,5.18 µM,10.4 µM,> 100 µM,> 100 µM,6.13 µM,10.4 µM,2.65 µM,6.35 µM,6.49 µM,11.9 µM,6.53 µM,12.1 µM,10.1 µM,40.2 µM,3.77 µM,7.82 µM,2.21 µM,10.5 µM,5.37 µM,9.91 µM
Cn1ccc(=Nc2ccc(NC(=O)c3ccc(N=c4ccn(C)c5ccc([N+](=O)[O-])cc45)cc3)cc2)cc1,> 100 µM,> 100 µM,6.75 µM,> 100 µM,3.63 µM,28.5 µM,7.54 µM,> 100 µM,8.25 µM,> 100 µM,12.5 µM,74.5 µM,16.4 µM,92.6 µM,> 100 µM,> 100 µM,3.54 µM,> 100 µM,56.1 µM,> 100 µM
Nc1ccc(C#Cc2cncnc2Nc2ccc(OCc3cccc(F)c3)c(Cl)c2)cc1,> 23.6 µM,> 25 µM,11.4 µM,> 25 µM,> 12.1 µM,24.5 µM,10.1 µM,> 25 µM,> 17.3 µM,> 25 µM,> 13.2 µM,> 25 µM,6.07 µM,24.2 µM,7.32 µM,> 25 µM,15.3 µM,> 25 µM,17.4 µM,> 25 µM
C/C=C(\C)C(=O)O[C@@H]1C(O)[C@H]2OC(COC(=O)CCC(=O)CCCCCC[C@H](CCCCC)O[C@@H]3OC(C)[C@H](OC(C)=O)C(O)[C@H]3O2)[C@H]1OC(=O)/C=C/c1ccccc1 (some centres not stated),< 0.01 µM,0.123 µM,< 0.01 µM,> 100 µM,< 0.01 µM,0.747 µM,< 0.01 µM,0.652 µM,< 0.0148 µM,7.18 µM,< 0.0109 µM,1.04 µM,< 0.01 µM,23.3 µM,0.034 µM,> 100 µM,< 0.01 µM,9.35 µM,0.028 µM,7.61 µM
O=C(O)c1cc2ccccc2c(N=Nc2c([N+](=O)[O-])cc([N+](=O)[O-])cc2S(=O)(=O)O)c1O,–,> 100 µM,–,> 100 µM,–,> 100 µM,–,> 100 µM,–,> 100 µM,–,> 100 µM,–,> 100 µM,–,> 100 µM,–,> 100 µM,–,> 100 µM
COC(=O)[C@]12CC[C@@H](C)[C@H](C)[C@@H]1C1=CC[C@@H]3[C@@]4(C)C(C=O)=C[C@@](C)(COC(C)=O)[C@@H]4[C@H](O)C[C@@]3(C)[C@]1(C)CC2,2.15 µM,5.51 µM,3.57 µM,9.77 µM,1.74 µM,10.5 µM,1.92 µM,3.97 µM,2.74 µM,6.04 µM,2.02 µM,4.8 µM,2.67 µM,9.43 µM,1.54 µM,3.06 µM,1.4 µM,4.55 µM,1.89 µM,4.26 µM
O=C1c2ccccc2S(=O)(=O)N1CSC(=S)N1CCCC1,> 100 µM,> 100 µM,4.02 µM,> 100 µM,> 48 µM,> 100 µM,> 100 µM,> 100 µM,> 100 µM,> 100 µM,> 100 µM,> 100 µM,> 100 µM,> 100 µM,> 100 µM,> 100 µM,–,> 36 µM,> 100 µM,> 100 µM
COC(=O)c1ccccc1NC(=O)C(=O)CC(=O)c1ccccc1NC1=CC(=O)C(=O)c2ccccc21,–,17.9 µM,–,> 100 µM,–,40.3 µM,–,> 74.9 µM,–,> 74.8 µM,–,14.8 µM,–,37.2 µM,–,34.1 µM,–,35.1 µM,–,30.8 µM
CC(CN)[C@@H]1CC[C@]2(CO)CC[C@]3(C)[C@H](CC[C@@H]4[C@@]5(C)CCC(NCCO)C(C)(C)[C@@H]5CC[C@]43C)[C@@H]12 (some centres not stated),1.92 µM,3.68 µM,1.54 µM,3.35 µM,1.3 µM,3.12 µM,1.62 µM,3.26 µM,2 µM,4.08 µM,1.73 µM,3.15 µM,1.87 µM,4.59 µM,1.98 µM,3.97 µM,1.89 µM,4.5 µM,1.55 µM,3 µM
O=C(O)CCC1COc2ccccc2O1 (configuration not stated),–,> 10 µM,–,> 10 µM,–,> 10 µM,–,> 10 µM,–,> 10 µM,–,> 10 µM,–,> 10 µM,–,> 10 µM,–,> 10 µM,–,> 10 µM
CCCCn1c2c(c3ccccc3c1=O)C(=O)c1ccccc1-2,–,> 100 µM,–,> 100 µM,–,> 100 µM,–,> 100 µM,–,> 100 µM,–,> 100 µM,–,> 100 µM,–,> 100 µM,–,> 100 µM,–,> 100 µM
CN1CCN(c2ccc(-c3cnc4c(-c5csc6ccccc56)cnn4c3)cc2)CC1,5.01 µM,> 15 µM,3.03 µM,> 15 µM,> 15 µM,> 15 µM,1.19 µM,> 15 µM,8.37 µM,> 15 µM,13.8 µM,> 15 µM,10.9 µM,> 15 µM,3.65 µM,> 15 µM,2.99 µM,9.75 µM,4.35 µM,12.3 µM
O=C1C(Cl)=C(Nc2ccc3cn[nH]c3c2)C(=O)c2ccccc21,1.59 µM,3.01 µM,0.526 µM,2.06 µM,1.67 µM,3.03 µM,1.98 µM,3.72 µM,2.15 µM,5.29 µM,1.66 µM,3.06 µM,0.5 µM,3.88 µM,1.01 µM,2.17 µM,0.31 µM,2.43 µM,1.81 µM,3.21 µM
Cc1cc(O)c2c(c1)C(=O)c1cc(O)cc(O)c1C2=O,–,60.9 µM,28 µM,> 100 µM,–,> 81.6 µM,–,> 100 µM,–,44.3 µM,–,> 100 µM,26.2 µM,82.4 µM,–,> 80.2 µM,–,99.8 µM,25.5 µM,84.6 µM
Cc1cc(S(=O)(=O)Nc2nc3ccsc3c(=O)n2Cc2ccco2)c(S)cc1Cl,> 100 µM,> 100 µM,25.6 µM,> 100 µM,> 100 µM,> 100 µM,> 100 µM,> 100 µM,> 100 µM,> 100 µM,> 100 µM,> 100 µM,81 µM,> 100 µM,> 100 µM,> 100 µM,59 µM,> 100 µM,> 100 µM,> 100 µM
O=C1C=CC(=O)C1(Br)Br,–,38.1 µM,–,> 95.1 µM,–,24.5 µM,–,32.7 µM,–,38.4 µM,–,30.7 µM,–,50.1 µM,–,17.3 µM,–,20.1 µM,–,23.8 µM
NCCNCC(O)CO (configuration not stated),–,> 100 µM,–,> 100 µM,–,> 100 µM,–,> 100 µM,–,> 100 µM,–,> 100 µM,–,> 100 µM,–,> 100 µM,–,> 100 µM,–,> 100 µM
O=c1cccc(C#Cc2ccccc2)o1,5.9 µM,> 22.8 µM,40.4 µM,> 100 µM,42.3 µM,> 100 µM,14.6 µM,> 100 µM,4.63 µM,15.4 µM,7.74 µM,22.4 µM,6.5 µM,25.9 µM,6.9 µM,23.6 µM,0.698 µM,12.1 µM,2.2 µM,15 µM
COc1cc2cc(Oc3ccc(NC(=O)Nc4ccccc4)cc3)c(C)nc2cc1OCCN1CCCCC1,5.63 µM,11.1 µM,1.05 µM,3.7 µM,3.76 µM,8.74 µM,3.32 µM,9.35 µM,5.96 µM,12.9 µM,6.46 µM,12.4 µM,5.79 µM,14.2 µM,4.18 µM,9.14 µM,3.52 µM,10.8 µM,5.58 µM,11.1 µM
